Assay results: paper PMC3520974, “Differential Dynamic Engagement within 24 SH3 Domain: Peptide Complexes Revealed by Co-Linear Chemical Shift Perturbation Analysis” (PLoS ONE, 2012)

Legend:
[1] = system: Abp1p SH3 domain (AbpSH3); assay: Hydrogen exchange protection of AbpSH3 complexes by NMR; assay type: binding, yeast; conditions: sum of log amide protection factors of SII residues; 99% peptide-saturated 100 µM AbpSH3 in D2O, pH 7.0, 18°C, HSQC every 20 minutes over 24 hours
Procedure: All hydrogen exchange experiments were conducted in 50 mM sodium phosphate, 100 mM NaCl, 1 mM EDTA pH 7.0, 18°C. Based on the known binding constants, sufficient peptide was added to 100 µM AbpSH3 such that 99% saturation was achieved (this was confirmed by comparing the chemical shifts of previously recorded peptide-saturated samples) for 7 different AbpSH3 complexes (Table S4). The samples were lyophilized and resuspended in D2O, and ^1H-^15N HSQC spectra were recorded every 20 minutes over a period of 24 hours. Many peaks disappeared over time. Intensities of peaks were fit to exponential curves, to yield observed rate constants (kexchange) for each amide group. The rate constant was converted to log protection factor (P), log10(kintrinsic/kexchange) using values for amide protection of free amino acids (http://hx2.med.upenn.edu/download.html). […] These residues became protected to different degrees in the different complexes although they all still exchanged sufficiently fast for their rates to be accurately calculated within the timeframe of the experiment. The biggest difference for the sum between complexes is about 20, which corresponds to a residue ΔΔG of −2.8 kcal/mol, which is approximately the difference between the strongest and weakest peptide binding energy.

[2] = system: Abp1p SH3 domain (AbpSH3); assay: Isothermal titration calorimetry of peptide binding to AbpSH3; parameters: species or system yeast
Procedure: Binding isotherms were recorded as previously at 30°C [23]. Enthalpy changes were measured at 4 different temperatures (20, 25, 30, 35°C) and the slopes of temperature vs. enthalpy change were fit to yield the change in heat capacity. All samples were in 50 mM sodium phosphate, 100 mM NaCl, 1 mM EDTA pH 7.0. Errors are ±95% confidence intervals except the ΔCP values, which report the standard error of the least squared fit to the data (ΔH vs. temperature).

[3] = system: Abp1p SH3 domain (AbpSH3); assay: Co-linear chemical shift perturbation (CCSP) analysis of peptide-saturated AbpSH3 complexes by NMR; assay type: binding, yeast; conditions: rank among the 24 complexes; >99% peptide-saturated
Procedure: NMR experiments were carried out at 30°C on Varian 500 MHz spectrometers equipped with pulsed field gradients and a triple resonance probe with actively shielded z-gradients. Data were processed and analyzed using nmrPipe/nmrDraw and nmrView. All spectra were recorded in 50 mM sodium phosphate, 100 mM NaCl, 1 mM EDTA pH 7.0. ^1H-^15N HSQC spectra were collected using standard methods. ^1H-^13C HSQC spectra were recorded using constant time HSQC experiments.
AbpSH3 complexes were assigned using the established assignments of ArkA-bound and free AbpSH3 [8]; serial peptide additions were used to monitor the direction that the peaks moved to assign the final position of the SH3 resonances. […] The assignments were also compared to the previously determined ArkA-AbpSH3 complex resonances. […]
The combined ^1H and ^15N chemical shift differences (in ppm) between each pair of resonances that define the lines x, y and z were calculated using the following expression: δΔ = √((Nppm shift * 0.1)^2+(Hppm shift)^2), where Nppm shift is the difference in ppm in the nitrogen dimension and Hppm is the difference in ppm in the proton dimension. The perpendicular distance (p) between the resonance and the CCSP line was calculated in the following way: p = √(x^2−s^2), where x = length of line connecting resonance to peptide free resonance and s = scalar projection. […]

[4] = target: T1, Abp1p SH3 domain (SH3 domain from the yeast Actin Binding Protein 1) (yeast, UniProt P15891 532-592); assay: NMR titration; 1H-15N HSQC of AbpSH3 (70-100 µM) with serial peptide additions to 99% or greater saturation; 30°C; 50 mM sodium phosphate, 100 mM NaCl, 1 mM EDTA pH 7.0; conditions: both partners purified
T1 construct: 15N-labelled for the NMR work; also called AbpSH3
T1 sequence (looked up): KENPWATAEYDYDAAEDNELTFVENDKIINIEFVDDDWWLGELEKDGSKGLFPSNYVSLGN

Molecule	SII hydrogen exchange protection (Σ LogP in SII) [1]	change in heat capacity (ΔCp) on complex formation ([2]; ITC, enthalpy changes at 20, 25, 30, 35°C, slope of ΔH vs. temperature, 50 mM sodium phosphate, 100 mM NaCl, 1 mM EDTA pH 7.0)	binding energy ([2]; rank among the 24 complexes, ITC at 30°C)	CCSP values in AbpSH3 [3]	binding result [4]
PRR: 15-residue peptide found N-terminal to AbpSH3 (residues 516 to 530 in Abp1p) (Ac-AAPPPPPRRATPEKK-NH2)	~0	~0 kcal/mol K	the lowest measured	lowest	–
Ac-AAPPPPPRRATPEKK-NH2 (peptide, UniProt P15891 516-530, looked up, residues 516 to 530 of yeast Abp1p, proline-rich region N-terminal to the SH3 domain, 15 residues; source: synthetic peptide (Biomer tech), purified to greater than 95% by HPLC) [PRR1, 15-residue peptide found N-terminal to AbpSH3 (residues 516 to 530 in Abp1p)]	–	–	–	–	binds
